Laboratory results published in PubChem BioAssay AID330 (DTP/NCI, 2004).
“And” between values parts separate entries of the source, which are not always exact repeats. Equal values may be shown once. Toxic doses and inconclusive results are not listed.

System: P388 leukemia ip, CD2F1 mice, survival T/C
Test: NCI In Vivo Anticancer Drug Screen. Data for tumor model P388 Leukemia (intraperitoneal) in CD2F1 (CDF1) mice
Settings: endpoint: median survival time, higher = longer survival
Method in brief: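 Mice carrying the transplanted tumor received test compound or vehicle. Survival was recorded in each group, and the value is the treated-group measurement divided by that of the vehicle-treated control group.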

[1] = dose: 50.0 mg/kg/injection, schedule: Q01DX009 (ip), vehicle: saline with Tween-80
[2] = dose: 100.0 mg/kg/injection, schedule: Q01DX009 (ip), vehicle: saline with Tween-80
[3] = dose: 200.0 mg/kg/injection, schedule: Q01DX009 (ip), vehicle: saline with Tween-80
[4] = dose: 50.0 mg/kg/injection, schedule: Q01DX005 (ip), vehicle: saline with Tween-80
[5] = dose: 100.0 mg/kg/injection, schedule: Q01DX005 (ip), vehicle: saline with Tween-80
[6] = dose: 100.0 mg/kg/injection, schedule: Q04DX003 (ip), vehicle: saline with Tween-80
[7] = dose: 200.0 mg/kg/injection, schedule: Q04DX003 (ip), vehicle: saline with Tween-80
[8] = dose: 400.0 mg/kg/injection, schedule: Q04DX003 (ip), vehicle: saline with Tween-80
[9] = dose: 50.0 mg/kg/injection, schedule: Q01DX005 (ip), vehicle: Klucel (hydroxypropylcellulose) (HPC)
[10] = dose: 100.0 mg/kg/injection, schedule: Q01DX005 (ip), vehicle: Klucel (hydroxypropylcellulose) (HPC)
[11] = dose: 200.0 mg/kg/injection, schedule: Q01DX005 (ip), vehicle: Klucel (hydroxypropylcellulose) (HPC)
[12] = dose: 200.0 mg/kg/injection, schedule: Q01DX005 (ip), vehicle: saline with Tween-80
[13] = dose: 60.0 mg/kg/injection, schedule: Q01DX005 (ip), vehicle: saline with Tween-80
[14] = dose: 50.0 mg/kg/injection, schedule: Q01DX009 (ip), vehicle: Klucel (hydroxypropylcellulose) (HPC)
[15] = dose: 100.0 mg/kg/injection, schedule: Q01DX009 (ip), vehicle: Klucel (hydroxypropylcellulose) (HPC)
[16] = dose: 200.0 mg/kg/injection, schedule: Q01DX009 (ip), vehicle: Klucel (hydroxypropylcellulose) (HPC)

## CCCCCCC(=O)/C=C/c1ccccc1OC(=O)c1ccc(Cl)cc1
dose: 25.0 mg/kg/injection, schedule: Q01DX009 (ip), vehicle: saline with Tween-80
  T/C: 101 % of control
[1]
  T/C: 88 % of control and 90 % of control
[2]
  T/C: 95 % of control
[3]
  T/C: 94 % of control

## N#C/C(=N\NC(=O)c1ccccc1Cl)c1ccccc1Cl
[4]
  T/C: 97 % of control
[5]
  T/C: 106 % of control

## O=[n+]1c2c(n([O-])c3ccccc31)CCCCC2
[6]
  T/C: 99 % of control
[7]
  T/C: 101 % of control
[8]
  T/C: 92 % of control

## O=C(O)CCCCOc1ccc(N(CCCl)CCCl)cc1
dose: 100.0 mg/kg/injection, schedule: Q01DX001 (ip), vehicle: Klucel (hydroxypropylcellulose) (HPC)
  T/C: 123 % of control

## CN1/C(=C/C(=S)SCC(=O)c2ccccc2)C=Cc2ccccc21
dose: 50.0 mg/kg/injection, schedule: Q04DX002 (ip), vehicle: saline with Tween-80
  T/C: 94 % of control
dose: 100.0 mg/kg/injection, schedule: Q04DX002 (ip), vehicle: saline with Tween-80
  T/C: 90 % of control
dose: 200.0 mg/kg/injection, schedule: Q04DX002 (ip), vehicle: saline with Tween-80
  T/C: 88 % of control

## CCOc1ccc(Cc2nc3c([nH]2)c(=O)n(C)c(=O)n3C)cc1OCC
dose: 50.0 mg/kg/injection, schedule: Q04DX003 (ip), vehicle: saline with Tween-80
  T/C: 104 % of control
[6]
  T/C: 103 % of control
[7]
  T/C: 113 % of control and 95 % of control

## O=C1NC(c2ccccc2)C(c2ccccc2)(c2ccccc2)O1 (configuration not stated)
[1]
  T/C: 93 % of control
[2]
  T/C: 86 % of control

## O=C(O)COc1ccccc1P(=O)(c1ccccc1)c1ccccc1
[9]
  T/C: 101 % of control
[10]
  T/C: 102 % of control
[11]
  T/C: 103 % of control

## Nc1cc2nc(=O)cc3n2c(n1)SC3
[9]
  T/C: 99 % of control
[10]
  T/C: 100 % of control
[11]
  T/C: 100 % of control

## Cc1ccc(S(=O)(=O)OC2CCCC2)cc1
dose: 50.0 mg/kg/injection, schedule: Q01DX009 (ip), vehicle: other
  T/C: 100 % of control
dose: 100.0 mg/kg/injection, schedule: Q01DX009 (ip), vehicle: other
  T/C: 103 % of control
dose: 200.0 mg/kg/injection, schedule: Q01DX009 (ip), vehicle: other
  T/C: 89 % of control

## CCCCCC(O)C1C(=O)OC(C)C(O)/C=C/C=C/C=C/C=C/C=C(\C)C(O)C(O)C(O)CC(O)CC(O)CC(O)CC(O)CC1O (configuration not stated)
dose: 0.5 mg/kg/injection, schedule: Q01DX010 (ip), vehicle: saline
  T/C: 100 % of control
dose: 1.0 mg/kg/injection, schedule: Q01DX010 (ip), vehicle: saline
  T/C: 100 % of control
dose: 2.0 mg/kg/injection, schedule: Q01DX010 (ip), vehicle: saline
  T/C: 100 % of control and 90 % of control
dose: 4.0 mg/kg/injection, schedule: Q01DX010 (ip), vehicle: saline
  T/C: 90 % of control
dose: 8.0 mg/kg/injection, schedule: Q01DX010 (ip), vehicle: saline
  T/C: 100 % of control

## O=C1c2ccccc2C(=O)c2cc3c(cc21)C1OC3C2=C1CC1C(=O)OC(=O)C1C2 (configuration not stated)
[4]
  T/C: 111 % of control
[5]
  T/C: 93 % of control
[12]
  T/C: 94 % of control

## COc1ccc(Oc2ccc(C(=O)C(CN(C)C)CN(C)C)cc2)cc1
dose: 3.75 mg/kg/injection, schedule: Q01DX005 (ip), vehicle: saline
  T/C: 121 % of control
dose: 7.5 mg/kg/injection, schedule: Q01DX005 (ip), vehicle: saline
  T/C: 124 % of control
dose: 30.0 mg/kg/injection, schedule: Q01DX005 (ip), vehicle: saline
  T/C: 88 % of control

## Nc1nc(N)nc(Cc2ccccc2)n1
[1]
  T/C: 104 % of control
[2]
  T/C: 93 % of control
[3]
  T/C: 95 % of control

## CCN(CC)CC(O)c1c(OC)ccc2ccccc12 (configuration not stated)
dose: 12.5 mg/kg/injection, schedule: Q01DX005 (ip), vehicle: saline
  T/C: 96 % of control
dose: 25.0 mg/kg/injection, schedule: Q01DX005 (ip), vehicle: saline
  T/C: 96 % of control
dose: 50.0 mg/kg/injection, schedule: Q01DX005 (ip), vehicle: saline
  T/C: 104 % of control and 97 % of control

## O=C(CCl)N1c2ccccc2Sc2ccccc21
dose: 12.5 mg/kg/injection, schedule: Q01DX009 (ip), vehicle: water
  T/C: 105 % of control
dose: 25.0 mg/kg/injection, schedule: Q01DX009 (ip), vehicle: water
  T/C: 100 % of control
dose: 50.0 mg/kg/injection, schedule: Q01DX009 (ip), vehicle: water
  T/C: 107 % of control
dose: 100.0 mg/kg/injection, schedule: Q01DX009 (ip), vehicle: water
  T/C: 111 % of control
dose: 200.0 mg/kg/injection, schedule: Q01DX009 (ip), vehicle: water
  T/C: 114 % of control

## C/C(CC(c1ccccc1)N1CCc2ccccc2C1)=N/O (configuration not stated)
[2]
  T/C: 100 % of control
[3]
  T/C: 100 % of control
dose: 400.0 mg/kg/injection, schedule: Q01DX009 (ip), vehicle: saline with Tween-80
  T/C: 100 % of control

## CC1C/C(=C\N=[N+]=[N-])C(=O)O1 (configuration not stated)
dose: 15.0 mg/kg/injection, schedule: Q01DX005 (ip), vehicle: saline with Tween-80
  T/C: 107 % of control
dose: 30.0 mg/kg/injection, schedule: Q01DX005 (ip), vehicle: saline with Tween-80
  T/C: 105 % of control
[13]
  T/C: 105 % of control and 94 % of control

## O=C(/C=C/c1ccc(Cl)cc1)/C=C/c1ccc(Cl)cc1
[1]
  T/C: 91 % of control
[2]
  T/C: 86 % of control
[3]
  T/C: 93 % of control

## CC(=O)n1oc2c(Br)cc(Br)cc2c1=O
[9]
  T/C: 116 % of control
[10]
  T/C: 103 % of control
[11]
  T/C: 107 % of control

## O=C(CSc1nccc(=O)[nH]1)c1ccccc1
[4]
  T/C: 103 % of control
[5]
  T/C: 103 % of control
[12]
  T/C: 100 % of control

## Cc1snnc1-c1ccccc1
[9]
  T/C: 105 % of control
[10]
  T/C: 105 % of control
[11]
  T/C: 96 % of control

## O=C1c2ccccc2C(=O)c2c(-c3ccccc3)ccc(-c3ccccc3)c21
[4]
  T/C: 93 % of control
[5]
  T/C: 99 % of control
[12]
  T/C: 87 % of control

## C=CCCCCCCCCC(=O)NCC(C)C
[6]
  T/C: 86 % of control
[7]
  T/C: 95 % of control
[8]
  T/C: 100 % of control

## O=C(Nc1ccc(N=C(c2ccccc2)N2CCOCC2)cc1)c1ccc(C(=O)Nc2ccc(N=C(c3ccccc3)N3CCOCC3)cc2)cc1
dose: 25.0 mg/kg/injection, schedule: Q01DX005 (ip), vehicle: Klucel (hydroxypropylcellulose) (HPC)
  T/C: 101 % of control
[9]
  T/C: 101 % of control
[10]
  T/C: 93 % of control
[11]
  T/C: 96 % of control

## C=C(C)C1CC2(C)C(C)C(OC(=O)/C(C)=C\C)CCC2C(O)C1=O (configuration not stated)
dose: 15.0 mg/kg/injection, schedule: Q04DX002 (ip), vehicle: distilled water + alcohol
  T/C: 96 % of control
dose: 30.0 mg/kg/injection, schedule: Q04DX002 (ip), vehicle: distilled water + alcohol
  T/C: 104 % of control
dose: 57.5 mg/kg/injection, schedule: Q04DX002 (ip), vehicle: distilled water + alcohol
  T/C: 107 % of control

## C[n+]1ccc(-c2nc(-c3cc[n+](C)cc3)nc(-c3cc[n+](C)cc3)n2)cc1
dose: 25.0 mg/kg/injection, schedule: Q01DX001 (ip), vehicle: saline with Tween-80
  T/C: 102 % of control
dose: 50.0 mg/kg/injection, schedule: Q01DX001 (ip), vehicle: saline with Tween-80
  T/C: 99 % of control
dose: 100.0 mg/kg/injection, schedule: Q01DX001 (ip), vehicle: saline with Tween-80
  T/C: 108 % of control

## O=C(Oc1ccc2c(=O)cc(-c3ccccc3)oc2c1OC(=O)c1ccccc1)c1ccccc1
[13]
  T/C: 94 % of control
dose: 120.0 mg/kg/injection, schedule: Q01DX005 (ip), vehicle: saline with Tween-80
  T/C: 93 % of control
dose: 240.0 mg/kg/injection, schedule: Q01DX005 (ip), vehicle: saline with Tween-80
  T/C: 90 % of control

## COc1ccc(OC)c(N=Cc2ccc(C=Nc3cc(OC)ccc3OC)cc2)c1
dose: 50.0 mg/kg/injection, schedule: Q01DX009 (ip), vehicle: saline
  T/C: 101 % of control
dose: 100.0 mg/kg/injection, schedule: Q01DX009 (ip), vehicle: saline
  T/C: 101 % of control

## CCN1C[C@]2(COC)[C@H](O)C[C@H](OC)[C@]34C1[C@H]([C@H](OC)[C@H]23)[C@]1(OC(C)=O)[C@H]2[C@@H](OC(=O)c3ccccc3)[C@](O)(C[C@H]24)[C@@H](OC)[C@@H]1O
dose: 0.01 mg/kg/injection, schedule: Q01DX009 (ip), vehicle: saline
  T/C: 113 % of control and 88 % of control

## CCOc1c(N=Nc2ccccc2Cl)c(-c2ccccc2)nn1C(=S)S
[4]
  T/C: 105 % of control
[5]
  T/C: 99 % of control

## Cc1nn(C(=O)c2ccncc2)c(C)c1N=Nc1cccc2ccccc12
[14]
  T/C: 96 % of control
[15]
  T/C: 99 % of control
[16]
  T/C: 96 % of control

## O=C(c1ccccc1)c1ccccc1-c1nc2ccccc2c(=O)o1
[14]
  T/C: 100 % of control
[15]
  T/C: 95 % of control
[16]
  T/C: 109 % of control
